Laboratory results reported in patent publication US20040176313A1, “Inhibitors of Src kinase for use in alzheimer's disease” (Aventis Pharma S.A., priority 2002, published 2004).

Experiments:
[1] = system: Aβ secretion, CHO cells stably overexpressing APP751; test: Aβ secretion from CHO cells stably overexpressing APP751 treated with PP2 or PP3 (FIG. 6); type: cell-based; details: PP2 5 and 20 μM, PP3 20 μM (highest concentration), time points 1, 3 and 12 hours
Protocol: Therefore, a line of CHO cells stably overexpressing APP751 form was used, which secretes discrete levels of Aβ. If secretion involves endogenous Src activity, PP2 should be able to inhibit production of Aβ also in this cellular system.
(§1) Human embryonic kidney cells (HEK293) were cultured in Dulbecco's modified minimal medium supplemented with 10% fetal calf serum at 37° C. in a 5% CO2 atmosphere. For transfection, cells were grown for 16 hours in antibiotic-free medium, and transfected with Lipofectamine 2000 (Invitrogen) according to manufacturer's instructions. The total amount of DNA was maintained constant by addition of empty vector DNA. 48 hours after transfection, culture medium were recovered, while cells were harvested in ice-cold phosphate buffer saline (PBS) and gently lysed in lysis buffer (50 mM Tris/HCl, pH 7.5, 150 mM NaCl, 0.5% Triton X-100, 10% glycerol, 50 mM NaF, 1mM Na vanadate), in the presence of a protease inhibitor cocktail (Complete, EDTA-free, Roche). The extracts were clarified by centrifugation at 16,000×g at 4° C., and the protein concentration determined by the Bio-Rad protein assay according to manufacturer's instructions. […] Radioactive samples were resolved on 10% SDS-PAGE and quantitated with a Storm 840 phosphorimager (Amersham Pharmacia Biotech). […]

[2] = system: Aβ secretion, HEK293 cells transfected with APP695 and SrcYF; test: Aβ accumulation in culture medium of HEK293 cells co-transfected with APP695 and active Src (SrcYF), sandwich ELISA (FIG. 5); type: cell-based, Human; details: exposure for 48 hours to 1, 5 and 20 μM PP2 or PP3, sandwich ELISA on culture medium
Protocol: as §1, with “48 hours after transfection, culture medium were recovered, while cells were harvested in ice-cold phosphate buffer saline (PBS) and gently lysed in lysis buffer (50 mM Tris/HCl, pH 7.5, 150 mM NaCl, 0.5% Triton X-100, 10% glycerol, 50 mM NaF, 1mM Na vanadate), in the presence of a protease inhibitor cocktail (Complete, EDTA-free, Roche).” left out
HEK293 cells were transfected with APP695 expression vectors. […] HEK293 cells were co-transfected with APP and either empty vector, or active Abl (Abl-PP), or active Src (SrcYF) kinases, and the secretion of APPsec and β were evaluated. […] Both medium and protein extracts have been used in immunoprecipitation experiments for quantitative dosage of radiolabeled APPsec and holo-APP, respectively. […]

SMILES | amount of Aβ [1] | secreted Aβ [2]
Nc1ncnc2c1cnn2-c1ccccc1 [PP3] | has no effect | do not affect Aβ rise by SrcYF transfection
CC(C)(C)n1nc(-c2ccc(Cl)cc2)c2c(N)ncnc21 [PP2, 4-amino-5-(4-chlorophenyl)-7-(t-butyl)pyrazolo[3,4d]pyrimidine] | reduces in a dose-dependent manner the amount of Aβ | dose-dependent decrease of secreted AP
